According to ChEMBL document CHEMBL4184141, “Investigating the Antibacterial Activity of Biphenylthiazoles against Methicillin- and Vancomycin-Resistant Staphylococcus aureus (MRSA and VRSA)” (J Med Chem, 2017):
Converted amounts (≈) assume the structure as drawn. The source made the active and inactive calls. The rule behind the calls is not given here.

How the values were obtained:
Staphylococcus aureus [1] = assay: Antibacterial activity against methicillin-resistant Staphylococcus aureus 2658 RCMB up to 20 hrs by broth microdilution assay; type: functional
Staphylococcus aureus [2] = assay: Antibacterial activity against methicillin-resistant Staphylococcus aureus NRS119 up to 20 hrs by broth microdilution assay; type: functional; conditions: NRS119, 20 h
Staphylococcus aureus [3] = assay: Bactericidal activity against methicillin-resistant Staphylococcus aureus NRS119 up to 18 hrs by broth microdilution assay; type: functional; conditions: NRS119, 18 h, read-out: MBC99.9
Staphylococcus aureus [4] = assay: Bactericidal activity against methicillin-resistant Staphylococcus aureus USA400 NRS123 up to 18 hrs by broth microdilution assay; type: functional; conditions: USA400 NRS123, 18 h, read-out: MBC99.9
Staphylococcus aureus [5] = assay: Antibacterial activity against methicillin-resistant Staphylococcus aureus USA400 NRS123 up to 20 hrs by broth microdilution assay; type: functional; conditions: USA400 NRS123, 20 h
Staphylococcus aureus [6] = assay: Antibacterial activity against Staphylococcus aureus RN4220 up to 20 hrs by broth microdilution assay; type: functional; conditions: RN4220, 20 h
Staphylococcus aureus [7] = assay: Antibacterial activity against vancomycin-resistant Staphylococcus aureus VRS12 up to 20 hrs by broth microdilution assay; type: functional; conditions: VRS12, 20 h
Staphylococcus aureus [8] = assay: Bactericidal activity against vancomycin-resistant Staphylococcus aureus VRS11a up to 18 hrs by broth microdilution assay; type: functional; conditions: read-out: MBC99.9
Staphylococcus aureus [9] = assay: Bactericidal activity against vancomycin-resistant Staphylococcus aureus VRS12 up to 18 hrs by broth microdilution assay; type: functional; conditions: VRS12, 18 h, read-out: MBC99.9
Staphylococcus aureus [10] = assay: Antibacterial activity against vancomycin-resistant Staphylococcus aureus VRS10 up to 20 hrs by broth microdilution assay; type: functional; conditions: VRS10, 20 h
Staphylococcus aureus [11] = assay: Bactericidal activity against vancomycin-resistant Staphylococcus aureus VRS10 up to 18 hrs by broth microdilution assay; type: functional; conditions: VRS10, 18 h, read-out: MBC99.9
Staphylococcus aureus [12] = assay: Bactericidal activity against Staphylococcus aureus RN4220 up to 18 hrs by broth microdilution assay; type: functional; conditions: RN4220, 18 h, read-out: MBC99.9
Staphylococcus aureus [13] = assay: Antibacterial activity against vancomycin-resistant Staphylococcus aureus VRS11a up to 20 hrs by broth microdilution assay; type: functional
Staphylococcus aureus [14] = assay: Antibacterial activity against methicillin-resistant Staphylococcus aureus USA300 infected in Caenorhabditis elegans AU37 harboring (sek-1(km4);glp-4(bn2)I) mutant assessed as reduction in bacterial burden at 20 ug/ml after 18 hrs by microscopic analysis relative to control; type: functional; parameters: scale not given: the % may be the effect or the level left
[15] = Half life in human liver microsomes in absence of NADPH by LC-MS/MS analysis; type: ADME, microsome
[16] = Intrinsic clearance in human liver microsomes in absence of NADPH by LC-MS/MS analysis; type: ADME, microsome; conditions: read-out: CLH
Staphylococcus aureus [17] = assay: Potentiation of vancomycin-induced antibacterial activity against vancomycin-resistant Staphylococcus aureus VRS10 assessed as fold reduction in vancomycin MIC at 0.5 times MIC after 20 to 22 hrs; type: functional
[18] = Aqueous solubility of the compound in PBS after 2 hrs by turbidimetric method; type: physicochemical
Staphylococcus aureus [19] = assay: Potency index, ratio of vancomycin MIC to compound MIC for antibacterial activity against vancomycin-resistant Staphylococcus aureus VRS10; type: functional
Staphylococcus aureus [20] = assay: Potency index, ratio of vancomycin MIC to compound MIC for antibacterial activity against vancomycin-resistant Staphylococcus aureus VRS11a; type: functional
[21] = Intrinsic clearance in human liver microsomes in presence of NADPH by LC-MS/MS analysis; type: ADME, microsome; conditions: read-out: CLH
[22] = Half life in human liver microsomes in presence of NADPH by LC-MS/MS analysis; type: ADME, microsome
Staphylococcus aureus [23] = assay: Potentiation of vancomycin-induced antibacterial activity against vancomycin-resistant Staphylococcus aureus VRS10 assessed as reduction in vancomycin MIC after 20 hrs by checkerboard assay; type: functional
Staphylococcus aureus [24] = assay: Bactericidal activity against methicillin-resistant Staphylococcus aureus USA300 assessed as time required to reduce bacterial load to 0 at 4 times MIC by time-kill assay; type: functional
Pseudomonas aeruginosa = assay: Antibacterial activity against Pseudomonas aeruginosa ATCC 15442 up to 20 hrs by broth microdilution assay; type: functional; conditions: ATCC 15442, 20 h
Staphylococcus aureus [25] = assay: Potentiation of vancomycin-induced antibacterial activity against vancomycin-resistant Staphylococcus aureus VRS10 assessed as vancomycin MIC after 20 hrs by checkerboard assay; type: functional; conditions: VRS10, 20 h
HRT-18 cell line [26] = assay: Cytotoxicity against human HRT18 cells at 64 microg/ml after 6 hrs by MTS assay; type: cell-based; conditions: hrt-18, 6 h
Enterococcus faecium = assay: Antibacterial activity against vancomycin-resistant Enterococcus faecium ATCC 700221 up to 20 hrs by broth microdilution assay; type: functional; conditions: ATCC 700221, 20 h
Staphylococcus aureus [27] = assay: Synergistic antibacterial activity against vancomycin-resistant Staphylococcus aureus VRS10 after 20 hrs in presence of vancomycin by checkerboard assay; type: functional; conditions: VRS10, 20 h
HRT-18 cell line [28] = assay: Cytotoxicity against human HRT18 cells up to 32 microg/ml after 6 hrs by MTS assay; type: cell-based; conditions: hrt-18, 6 h
Staphylococcus aureus [29] = assay: Potency index, ratio of vancomycin MIC to compound MIC for antibacterial activity against vancomycin-resistant Staphylococcus aureus VRS12; type: functional
[30] = Apparent permeability of the compound across basolateral side to apical side in human Caco2 cells by LC-MS/MS analysis; type: ADME, cell-based; conditions: Caco-2
[31] = Efflux ratio of permeability from basolateral to apical side over apical to basolateral side of human Caco2 cells by LC-MS/MS analysis; type: ADME, cell-based; conditions: Caco-2

In the case of `Cc1nc(-c2ccc(-c3ccccc3)cc2)sc1-c1ccnc(N2CCC2)n1`, the MIC (Staphylococcus aureus [1]) is reported as > 25 µg/mL.
With `Cc1nc(-c2ccc(-c3ccccc3)cc2)sc1-c1ccnc(-c2cccnc2)n1` the MIC (Staphylococcus aureus [1]) was > 25 µg/mL.
In the case of `CCNc1nccc(-c2sc(-c3ccc(-c4ccccc4)cc3)nc2C)n1`, the MIC (Staphylococcus aureus [1]) is reported as 6.25 µg/mL (≈ 16.8 µM).
`CNC(=N)Nc1nccc(-c2sc(-c3ccc(-c4ccccc4)cc3)nc2C)n1` gave an MIC (Staphylococcus aureus [2]) of 8 µg/mL (≈ 20 µM), an MBC (Staphylococcus aureus [3]) of 16 µg/mL (≈ 39.9 µM) and an MBC (Staphylococcus aureus [4]) of 16 µg/mL (≈ 39.9 µM). For the same molecule, the MIC (Staphylococcus aureus [5]) was 16 µg/mL (≈ 39.9 µM), the MIC (Staphylococcus aureus [6]) was 8 µg/mL (≈ 20 µM) and the MIC (Staphylococcus aureus [7]) was 64 µg/mL (≈ 160 µM). The MBC (Staphylococcus aureus [8]) was 64 µg/mL (≈ 160 µM), the MBC (Staphylococcus aureus [9]) was 64 µg/mL (≈ 160 µM) and the MIC (Staphylococcus aureus [10]) was 32 µg/mL (≈ 79.9 µM). For the same molecule, the MBC (Staphylococcus aureus [11]) was 64 µg/mL (≈ 160 µM), the MBC (Staphylococcus aureus [12]) was 32 µg/mL (≈ 79.9 µM) and the MIC (Staphylococcus aureus [1]) was 1.56 µg/mL (≈ 3.9 µM). The MIC (Staphylococcus aureus [13]) was 32 µg/mL (≈ 79.9 µM).
With `Cc1nc(-c2ccc(-c3ccccc3)cc2)sc1-c1ccnc(NC(C)C)n1` the MIC (Staphylococcus aureus [1]) was > 25 µg/mL.
In the case of `Cc1nc(-c2ccc(-c3ccccc3)cc2)sc1-c1ccnc(N2CCCCC2)n1`, the MIC (Staphylococcus aureus [1]) is reported as > 25 µg/mL.
With `Cc1nc(-c2ccc(-c3ccccc3)cc2)sc1-c1ccnc(NC(=N)c2ccncc2)n1` the MIC (Staphylococcus aureus [1]) was > 25 µg/mL.
In the case of `CCCNc1nccc(-c2sc(-c3ccc(-c4ccccc4)cc3)nc2C)n1`, the MIC (Staphylococcus aureus [1]) is reported as > 25 µg/mL.
For `Cc1nc(-c2ccc(-c3ccccc3)cc2)sc1-c1ccnc(NC(N)=S)n1`, the MIC (Staphylococcus aureus [1]) was > 25 µg/mL.
`CNc1nccc(-c2sc(-c3ccc(-c4ccccc4)cc3)nc2C)n1` showed an MIC (Staphylococcus aureus [1]) of 12.5 µg/mL (≈ 34.9 µM).
For `Cc1nc(-c2ccc(-c3ccccc3)cc2)sc1-c1ccnc(N(C)C)n1`, the MIC (Staphylococcus aureus [1]) was > 25 µg/mL.
`Cc1nc(-c2ccc(-c3ccccc3)cc2)sc1-c1ccnc(N2CCOCC2)n1` showed an MIC (Staphylococcus aureus [1]) of 3.12 µg/mL (≈ 7.53 µM).
For `Cc1nc(-c2ccc(-c3ccccc3)cc2)sc1-c1ccnc(NC(=N)c2ccccn2)n1`, the MIC (Staphylococcus aureus [1]) was > 25 µg/mL.
In the case of `Cc1nc(-c2ccc(-c3ccccc3)cc2)sc1-c1ccnc(NC(=N)n2cccn2)n1`, the MIC (Staphylococcus aureus [1]) is reported as > 25 µg/mL.
With `Cc1nc(-c2ccc(-c3ccccc3)cc2)sc1-c1ccnc(NC(=N)N2CCN(C)CC2)n1` the MIC (Staphylococcus aureus [2]) was 2 µg/mL (≈ 4.26 µM), the Activity (Staphylococcus aureus [14]) was 65% and the half-life [15] was > 4 h. For the same molecule, the MBC (Staphylococcus aureus [3]) was 4 µg/mL (≈ 8.52 µM), the microsomal CLint [16] was < 9.6 µL/min/mg and the MBC (Staphylococcus aureus [4]) was 2 µg/mL (≈ 4.26 µM). The Activity (Staphylococcus aureus [17]) was “inactive”, the MIC (Staphylococcus aureus [5]) was 1 µg/mL (≈ 2.13 µM) and the MIC (Staphylococcus aureus [6]) was 2 µg/mL (≈ 4.26 µM). For the same molecule, the solubility kinetic at 2 h [18] was 2.3 µM (≈ 1.08 µg/mL), the Ratio (Staphylococcus aureus [19]) was 100 and the Ratio (Staphylococcus aureus [20]) was 100. For the same molecule, the MIC (Staphylococcus aureus [7]) was 2 µg/mL (≈ 4.26 µM), the MBC (Staphylococcus aureus [8]) was 8 µg/mL (≈ 17 µM) and the MBC (Staphylococcus aureus [9]) was 8 µg/mL (≈ 17 µM). For the same molecule, the microsomal CLint [21] was 15.3 µL/min/mg, the half-life [22] was 2.52 h and the “fractional inhibitory concentration index (FICI)” value (Staphylococcus aureus [23]) was 1.02. For the same molecule, the Time (Staphylococcus aureus [24]) was 2 h, the MIC (Staphylococcus aureus [10]) was 4 to 8 µg/mL (≈ 8.52 to 17 µM) and the MIC (Pseudomonas aeruginosa) was > 64 µg/mL. For the same molecule, the MIC (Staphylococcus aureus [25]) was 128 to 256 µg/mL, the Activity (HRT-18 cell line [26]) was “Toxic” and the MIC (Enterococcus faecium) was 16 µg/mL (≈ 34.1 µM). The MIC (Staphylococcus aureus [27]) was 0.13 µg/mL, the MBC (Staphylococcus aureus [11]) was 8 µg/mL (≈ 17 µM) and the Activity (HRT-18 cell line [28]) was “Non-Toxic”. The MBC (Staphylococcus aureus [12]) was 8 µg/mL (≈ 17 µM), the Ratio (Staphylococcus aureus [29]) was 8 and the Papp B→A [30] was 1.7 ×10⁻⁶ cm/s. For the same molecule, the efflux ratio [31] was > 2, the MIC (Staphylococcus aureus [1]) was 0.39 µg/mL (≈ 0.83 µM) and the MIC (Staphylococcus aureus [13]) was 4 µg/mL (≈ 8.52 µM).
For `Cc1nc(-c2ccc(-c3ccccc3)cc2)sc1-c1ccnc(NC#N)n1`, the MIC (Staphylococcus aureus [1]) was > 25 µg/mL.
`Cc1nc(-c2ccc(-c3ccccc3)cc2)sc1-c1ccnc(NN2CCOCC2)n1` gave an MIC (Staphylococcus aureus [1]) of 3.12 µg/mL (≈ 7.26 µM).
In the case of `Cc1nc(-c2ccc(-c3ccccc3)cc2)sc1-c1ccnc(NN)n1`, the MIC (Staphylococcus aureus [1]) is reported as 1.56 µg/mL (≈ 4.34 µM).
With `Cc1nc(-c2ccc(-c3ccccc3)cc2)sc1-c1ccnc(-c2ccncc2)n1` the MIC (Staphylococcus aureus [1]) was > 25 µg/mL.
